{"source": "patent US20240016874A1", "about": "“COMPOSITIONS AND METHODS FOR PREVENTING AND TREATING CORONAVIRUSES” (priority 2020, published 2024)", "key": {"[1]": {"tested_on": "SARS-CoV-2 MLV-PP infecting Expi-293F-ACE2 cells"}, "[2]": {"tested_on": "SARS-CoV-2 MLV-PP infecting Expi-293F-ACE2 cells", "assay": "microbe, parasite or virus in culture", "settings": "Severe acute respiratory syndrome coronavirus 2, read-out: IC50 of thymoquinone, SARS-CoV-2-PP infection"}}, "note": "Read-outs that look alike come from different tables or passages of the source."}
{"smiles": "C[C@@H]1CCO[C@H]2Cn3cc(C(=O)NCc4ccc(F)cc4F)c(=O)c(O)c3C(=O)N12", "note": "[dolutegravir, reference compound]", "values": [{"measurement": "inhibition of SARS-CoV-2 MLV-PP", "setting": "[1]", "value": "potent inhibitor"}]}
{"smiles": "COc1cnc(-n2cnc(C)n2)c2[nH]cc(C(=O)C(=O)N3CCN(C(=O)c4ccccc4)CC3)c12", "note": "[temsavir, reference compound]", "values": [{"measurement": "inhibition of SARS-CoV-2 MLV-PP infecting Expi-293F-ACE2 cells", "setting": "[1]", "value": "does not inhibit"}]}
{"smiles": "CC1=CC(=O)C(C(C)C)=CC1=O", "note": "[thymoquinone]", "values": [{"measurement": "block of the viral infection", "setting": "[1]", "value": "block the viral infection"}, {"measurement": "cell toxicity at high concentrations", "setting": "[1]", "value": "can cause cell death"}, {"measurement": "concentration that blocks SARS-CoV-2-MLV-PP infection without any cell toxicity", "setting": "[1]", "value": "1 to 10", "unit": "µM"}, {"measurement": "increased effectiveness on adding black seed oil to thymoquinone", "setting": "[1]", "value": "about 16.0%"}, {"measurement": "IC50", "setting": "[1]; read-out: IC50 of thymoquinone, SARS-CoV-2-PP infection", "value": 3.6, "unit": "µM"}, {"measurement": "IC50", "setting": "[2]", "value": 4.3, "unit": "µM"}]}
